Measured values: patent US10286034B2, “Uses of bremelanotide in therapy for female sexual dysfunction” (Palatin Technologies, Inc., priority 2012, dated 2019)

Columns and labels:
female rats = settings: cited from earlier work
[1] = Example 1: plasma pharmacokinetics after in-clinic subcutaneous dose; type: in vivo, human
Description: Ambulatory blood pressure monitoring was conducted following both placebo and randomized treatment group in-clinic administrations. Three periods of ambulatory blood pressure monitoring were included, the first period was from before to 24 hours after a single, in-clinic dose of placebo (to establish a baseline); the second and third periods occurred from before to 24 hours after each of 2 single, in-clinic doses of double-blind treatment, administered within 14 days of each other. Blood samples for pharmacokinetic analysis were collected before and at 0.5, 1.0, and 2.0 hours after each in-clinic bremelanotide single-dose treatment (double-blind only), to permit analysis of concentration-response relationships.
Mean pharmacokinetic parameters were determined by bremelanotide dose and visit, including Cmax determinations (the highest ng/mL concentration at either 0.5 or 1 hour post administration) and AUC determinations at two hours and, for a subset of subjects in each group, at four hours.
The Cmax for the mean curve was calculated by averaging the concentrations at each time point (0.5, 1, 2 and 4 hours), and this is shown in FIG. 3.

[2] = test system: men diagnosed with erectile dysfunction; settings: subcutaneous injection of 4 or 6 mg; cited from earlier work
[3] = test system: premenopausal and postmenopausal women with FSAD; experiment: Intranasal Phase 2 studies: efficacy, adverse events, discontinuation; type: in vivo, human
Description: In the bremelanotide premenopausal arm, 42.5% of the subjects were discontinued due to hypertension, nausea, vomiting or myalgia. Subjects received a 10 mg intranasal dose of bremelanotide, with premenopausal subjects determined to have a mean plasma concentration of 88.5±51.9 ng/mL and a % CV of 58.6, and postmenopausal subjects determined to have a mean plasma concentration of 93.2±68.5 ng/mL and a % CV of 73.5. The minimum and maximum plasma concentration levels for all women at thirty minutes post dose range from 0.0 ng/mL to 207.0 ng/mL.
Results with premenopausal women in a placebo-controlled, randomized, double-blind, parallel group, at-home exploratory study to evaluate the efficacy and safety of intranasally administered bremelanotide in subjects with female sexual arousal disorder (FSAD) were compared against results in the study of Example 1. In the intranasal study, a total of 76 premenopausal subjects were randomized, with 40 subjects to receive bremelanotide and 36 to receive placebo. Twenty-two subjects treated with bremelanotide and 29 treated with placebo completed the study, with 16 subjects who received bremelanotide (40%) discontinuing from the study due to an adverse event. This compares to the study of Example 1, in which as shown by Table 6 only 8% of subjects on the 1.75 mg subcutaneous dose discontinuing due to an adverse event.

[4] = 10 mg intranasal, premenopausal, 40 subjects randomized

SMILES: CCCC[C@H](NC(C)=O)C(=O)N[C@H]1CC(=O)NCCCC[C@@H](C(=O)O)NC(=O)[C@H](Cc2c[nH]c3ccccc23)NC(=O)[C@H](CCCNC(=N)N)NC(=O)[C@@H](Cc2ccccc2)NC(=O)[C@H](Cc2c[nH]cn2)NC1=O [bremelanotide, Ac-Nle-cyclo(-Asp-His-D-Phe-Arg-Trp-Lys)-OH]
- effect on sexual behavior (female rats): selective pharmacological effect on appetitive sexual behavior
- Fos induction (female rats; subcutaneous injections): inducing the immediate-early gene product Fos in a variety of limbic and hypothalamic structures
- dopamine release (female rats; subcutaneous injections): increasing dopamine release in the medial preoptic area
- AUC(0-2 h) % CV ([1]; 0.75 mg SC, Visit 5): 24%
- AUC(0-2 h) Max ([1]; 0.75 mg SC, Visit 5): 85 ng·h/mL
- AUC(0-2 h) Mean ([1]; 0.75 mg SC, Visit 5): 53 ng·h/mL
- AUC(0-2 h) Median ([1]; 0.75 mg SC, Visit 5): 52 ng·h/mL
- AUC(0-2 h) Min ([1]; 0.75 mg SC, Visit 5): 25 ng·h/mL
- AUC(0-4 h) % CV ([1]; 0.75 mg SC, Visit 5): 23%
- AUC(0-4 h) Max ([1]; 0.75 mg SC, Visit 5): 126 ng·h/mL
- AUC(0-4 h) Mean ([1]; 0.75 mg SC, Visit 5): 84 ng·h/mL
- AUC(0-4 h) Median ([1]; 0.75 mg SC, Visit 5): 80 ng·h/mL
- AUC(0-4 h) Min ([1]; 0.75 mg SC, Visit 5): 50 ng·h/mL
- Cmax % CV ([1]; 0.75 mg SC, Visit 5): 27%
- Cmax Max ([1]; 0.75 mg SC, Visit 5): 60 ng/mL
- Cmax Median ([1]; 0.75 mg SC, Visit 5): 36 ng/mL
- Cmax Min ([1]; 0.75 mg SC, Visit 5): 17 ng/mL
- AUC(0-2 h) % CV ([1]; 0.75 mg SC, Visit 7): 24%
- AUC(0-2 h) Max ([1]; 0.75 mg SC, Visit 7): 92 ng·h/mL
- AUC(0-2 h) Mean ([1]; 0.75 mg SC, Visit 7): 53 ng·h/mL
- AUC(0-2 h) Median ([1]; 0.75 mg SC, Visit 7): 52 ng·h/mL
- AUC(0-2 h) Min ([1]; 0.75 mg SC, Visit 7): 26 ng·h/mL
- AUC(0-4 h) % CV ([1]; 0.75 mg SC, Visit 7): 20%
- AUC(0-4 h) Max ([1]; 0.75 mg SC, Visit 7): 120 ng·h/mL
- AUC(0-4 h) Mean ([1]; 0.75 mg SC, Visit 7): 80 ng·h/mL
- AUC(0-4 h) Median ([1]; 0.75 mg SC, Visit 7): 79 ng·h/mL
- AUC(0-4 h) Min ([1]; 0.75 mg SC, Visit 7): 51 ng·h/mL
- Cmax % CV ([1]; 0.75 mg SC, Visit 7): 27%
- Cmax Max ([1]; 0.75 mg SC, Visit 7): 78 ng/mL
- Cmax Mean ([1]; 0.75 mg SC, Visit 7): 38 ng/mL
- Cmax Min ([1]; 0.75 mg SC, Visit 7): 20 ng/mL
- AUC(0-2 h) % CV ([1]; 1.25 mg SC, Visit 5): 25%
- AUC(0-2 h) Max ([1]; 1.25 mg SC, Visit 5): 148 ng·h/mL
- AUC(0-2 h) Mean ([1]; 1.25 mg SC, Visit 5): 86 ng·h/mL
- AUC(0-2 h) Median ([1]; 1.25 mg SC, Visit 5): 81 ng·h/mL
- AUC(0-2 h) Min ([1]; 1.25 mg SC, Visit 5): 42 ng·h/mL
- AUC(0-4 h) % CV ([1]; 1.25 mg SC, Visit 5): 20%
- AUC(0-4 h) Max ([1]; 1.25 mg SC, Visit 5): 187 ng·h/mL
- AUC(0-4 h) Median ([1]; 1.25 mg SC, Visit 5): 136 ng·h/mL
- AUC(0-4 h) Min ([1]; 1.25 mg SC, Visit 5): 86 ng·h/mL
- Cmax % CV ([1]; 1.25 mg SC, Visit 5): 31%
- Cmax Max ([1]; 1.25 mg SC, Visit 5): 126 ng/mL
- Cmax Mean ([1]; 1.25 mg SC, Visit 5): 60 ng/mL
- Cmax Min ([1]; 1.25 mg SC, Visit 5): 29 ng/mL
- AUC(0-2 h) % CV ([1]; 1.25 mg SC, Visit 7): 25%
- AUC(0-2 h) Max ([1]; 1.25 mg SC, Visit 7): 144 ng·h/mL
- AUC(0-2 h) Mean ([1]; 1.25 mg SC, Visit 7): 84 ng·h/mL
- AUC(0-2 h) Median ([1]; 1.25 mg SC, Visit 7): 84 ng·h/mL
- AUC(0-2 h) Min ([1]; 1.25 mg SC, Visit 7): 24 ng·h/mL
- AUC(0-4 h) % CV ([1]; 1.25 mg SC, Visit 7): 25%
- AUC(0-4 h) Max ([1]; 1.25 mg SC, Visit 7): 199 ng·h/mL
- AUC(0-4 h) Mean ([1]; 1.25 mg SC, Visit 7): 142 ng·h/mL
- AUC(0-4 h) Median ([1]; 1.25 mg SC, Visit 7): 144 ng·h/mL
- AUC(0-4 h) Min ([1]; 1.25 mg SC, Visit 7): 39 ng·h/mL
- Cmax % CV ([1]; 1.25 mg SC, Visit 7): 33%
- Cmax Max ([1]; 1.25 mg SC, Visit 7): 150 ng/mL
- Cmax Mean ([1]; 1.25 mg SC, Visit 7): 60 ng/mL
- Cmax Median ([1]; 1.25 mg SC, Visit 7): 60 ng/mL
- Cmax Min ([1]; 1.25 mg SC, Visit 7): 18 ng/mL
- AUC(0-2 h) % CV ([1]; 1.75 mg SC, Visit 5): 23%
- AUC(0-2 h) Max ([1]; 1.75 mg SC, Visit 5): 171 ng·h/mL
- AUC(0-2 h) Min ([1]; 1.75 mg SC, Visit 5): 17 ng·h/mL
- AUC(0-4 h) % CV ([1]; 1.75 mg SC, Visit 5): 29%
- AUC(0-4 h) Max ([1]; 1.75 mg SC, Visit 5): 289 ng·h/mL
- AUC(0-4 h) Median ([1]; 1.75 mg SC, Visit 5): 179 ng·h/mL
- AUC(0-4 h) Min ([1]; 1.75 mg SC, Visit 5): 25 ng·h/mL
- Cmax % CV ([1]; 1.75 mg SC, Visit 5): 25%
- Cmax Mean ([1]; 1.75 mg SC, Visit 5): 77 ng/mL
- Cmax Median ([1]; 1.75 mg SC, Visit 5): 78 ng/mL
- AUC(0-2 h) % CV ([1]; 1.75 mg SC, Visit 7): 25%
- AUC(0-2 h) Max ([1]; 1.75 mg SC, Visit 7): 176 ng·h/mL
- AUC(0-2 h) Median ([1]; 1.75 mg SC, Visit 7): 111 ng·h/mL
- AUC(0-2 h) Min ([1]; 1.75 mg SC, Visit 7): 28 ng·h/mL
- AUC(0-4 h) % CV ([1]; 1.75 mg SC, Visit 7): 25%
- AUC(0-4 h) Max ([1]; 1.75 mg SC, Visit 7): 276 ng·h/mL
- AUC(0-4 h) Mean ([1]; 1.75 mg SC, Visit 7): 184 ng·h/mL
- AUC(0-4 h) Median ([1]; 1.75 mg SC, Visit 7): 180 ng·h/mL
- AUC(0-4 h) Min ([1]; 1.75 mg SC, Visit 7): 72 ng·h/mL
- Cmax % CV ([1]; 1.75 mg SC, Visit 7): 25%
- Cmax Max ([1]; 1.75 mg SC, Visit 7): 127 ng/mL
- Cmax Mean ([1]; 1.75 mg SC, Visit 7): 78 ng/mL
- Cmax Median ([1]; 1.75 mg SC, Visit 7): 77 ng/mL
- Cmax Min ([1]; 1.75 mg SC, Visit 7): 27 ng/mL
- Cmax % CV ([1]; 1.75 mg subcutaneous dose): 25%
- median Cmax ([1]; 1.75 mg subcutaneous dose): 78 ng/mL
- erectile response [2]: statistically significant erectile response compared to placebo
- subjects discontinuing from the study due to an adverse event, number [3, 4]: 16
- subjects discontinuing from the study due to an adverse event, percent [3, 4]: 40%
- subjects reporting at least one adverse event ([3]; intranasal, postmenopausal subjects): 100%
- sexual desire and arousal compared to placebo ([3]; intranasal, premenopausal and postmenopausal women with FSAD, two Phase 2 trials): increase sexual desire and arousal compared to placebo
- subjects discontinued due to hypertension, nausea, vomiting or myalgia ([3]; intranasal, premenopausal arm): 42.5%
- subjects reporting at least one adverse event ([3]; intranasal, premenopausal subjects): 92.5%
